Results taken from PMC7516806, “Hybrid Antimicrobial Peptide Targeting Staphylococcus aureus and Displaying Anti-infective Activity in a Murine Model” (Frontiers in Microbiology, 2020).
≈ marks a conversion by molar mass, not a printed value. Positions of bridges follow the written chain, without caps; N, C: chain ends. Residues, ends and D or L forms follow the SMILES beside them.

Experiments:
E. coli 25922 = assay: MIC, modified microtiter dilution; type: cell-based, Escherichia coli; settings: MHB, 2–7 × 10^5 CFU/ml, 37°C, 24 h, lowest concentration with no turbidity, at least three independent repeats
Description: (§1) The experiment was repeated at least three times independently.

E. coli UB1005 = assay: MIC, modified microtiter dilution; type: cell-based, Escherichia coli; settings: MHB, 2–7 × 10^5 CFU/ml, 37°C, 24 h, no turbidity, at least three independent repeats
Description: as §1

S. pullorum 7913 = assay: MIC, modified microtiter dilution; type: cell-based, Salmonella pullorum; settings: MHB, 2–7 × 10^5 CFU/ml, 37°C, 24 h, no turbidity, at least three independent repeats
Description: as §1

S. aureus 25923 = assay: MIC, modified microtiter dilution; type: cell-based, Staphylococcus aureus; settings: MHB, 2–7 × 10^5 CFU/ml, 37°C, 24 h, no turbidity, at least three independent repeats
Description: as §1

S. aureus 29213 [1] = assay: MIC, modified microtiter dilution; type: cell-based, Staphylococcus aureus; settings: MHB, 2–7 × 10^5 CFU/ml, 37°C, 24 h, no turbidity, at least three independent repeats
Description: as §1

MRSA 43300 = type: cell-based, Staphylococcus aureus; settings: MHB, 2–7 × 10^5 CFU/ml, 37°C, 24 h, no turbidity, at least three independent repeats
Description: as §1

L. rhamnosus 1.0385 = assay: MIC, modified microtiter dilution; type: cell-based, Lactobacillus rhamnosus; settings: 2–7 × 10^5 CFU/ml, 37°C, 24 h, no turbidity, at least three independent repeats
Description: as §1

L. rhamnosus 1.0911 = assay: MIC, modified microtiter dilution; type: cell-based, Lactobacillus rhamnosus; settings: 2–7 × 10^5 CFU/ml, 37°C, 24 h, no turbidity, at least three independent repeats
Description: as §1

L. rhamnosus 1.0936 = assay: MIC, modified microtiter dilution; type: cell-based, Lactobacillus rhamnosus; settings: 2–7 × 10^5 CFU/ml, 37°C, 24 h, no turbidity, at least three independent repeats
Description: as §1

L. rhamnosus 7469 = assay: MIC, modified microtiter dilution; type: cell-based, Lactobacillus rhamnosus; settings: 2–7 × 10^5 CFU/ml, 37°C, 24 h, no turbidity, at least three independent repeats
Description: as §1

S. aureus 29213 [2] = assay: MIC in the presence of physiological salts; type: cell-based, Staphylococcus aureus; settings: three independent repeats, unit not given in Table 4
Procedure: as §1
The MIC of peptides was determined in the presence of salts at physiological concentrations (150 mM NaCl, 4.5 mM KCl, 6 μM NH4Cl, 8 μM ZnCl2, 1 mM MgCl2, 2 mM CaCl2, and 4 μM FeCl3) as described previously ([Dong et al., 2014]). All experiments were performed three times independently.

S. aureus ATCC 29213 = assay: Time-dependent killing kinetics; type: cell-based, Staphylococcus aureus; settings: six independent trials
Procedure: The logarithmic phase S. aureus ATCC 29213 cells were harvested by centrifugation at 1000 × g for 5 min, washed twice with PBS, and diluted to 2–7 × 10^5 CFU/mL. S. aureus was treated with AMPs at various concentrations, including 0.125, 0.25, 0.5, 1, and 2 × MIC. At various time intervals (5 s, 10 s, 30 s, 1 min, 5 min, 10 min, and 30 min), 50 μL of bacterial solution was diluted and plated on MHA plates. Bacterial colonies were counted after 24 h of incubation at 37°C. The results were carried out in six independent trials.

[3] = system: Staphylococcus aureus 29213; assay: Bacterial resistance development, serial passaging; type: cell-based; settings: serial passage at sub-MIC for 15 days
Description: Staphylococcus aureus 29213 was employed to assess the development of resistance by the serial passaging method, as previously described ([Lyu et al., 2017]). Minimum inhibitory concentration testing was first conducted for all of the compounds to be tested, as described above. S. aureus was harvested from 96-well plates of sub-MIC levels, diluted in MHB to a concentration of 2–7 × 10^5 CFU/mL, and then subjected to MIC determination for up to 15 days. The change in MIC values determines the development of antibiotic resistance in S. aureus.

S. aureus 29213 [4] = assay: Histology (HE) of infected skin tissue; type: in vivo, ICR mice; settings: 24 h after injection of S. aureus
Procedure: To assess the antimicrobial activity of the peptide in vivo, a mouse model of subcutaneous infection was used ([Huang et al., 2011a]; [Omolo et al., 2017]). Female Institute for Cancer Research (ICR) mice (SPF, 20–25 g) were purchased from WeiTonglihua Co., Ltd. (Beijing, China), with eight animals per group. The mice were shaved on their backs and disinfected. S. aureus 29213 (100 μL) at a concentration of 1 × 10^8 CFU/mL was injected into the superficial skin of the mice. The mice were divided into four groups (n = 4), as follows: S. aureus + saline, S. aureus + S2 (80× MIC, 100 μL), S. aureus + vancomycin (Van) (80× MIC, 100 μL), and saline. S2, vancomycin, and saline were injected at the same site 1 h after infection. The mice were monitored over 24 h in an environmentally controlled room at 25 ± 1°C and 55 ± 5% relative humidity with a 12 h light/dark cycle.
To image the infected skin tissues, the mice were euthanized 24 h after the injection of S. aureus. Samples were fixed in 4% buffered paraformaldehyde and subjected to hematoxylin/eosin (HE) staining. The antimicrobial activity in vivo was determined by colony counting of infected skin samples. Skin homogenates were serially diluted in saline and incubated at 37°C for 24 h.

mouse skin = assay: Skin toxicity in vivo, TUNEL assay; parameters: species or system ICR mice; settings: 100 μL at 80 × MIC injected into skin, 24 h
Procedure: Anesthetized mice were shaved on their backs and disinfected. A total of 100 μL of S2 (80 × MIC) was injected into the skin. Equal volumes of saline and 100% DMSO were used as the negative and positive controls, respectively. The skin was removed from the injection sites for tissue processing after 24 h. OCT-embedded slides were stained using the DeadEnd^TM Fluorometric TUNEL System for the detection of apoptotic cells and counterstained with 4,6-diamidino-2-phenylindole (DAPI). Photographs were taken using a microscope ([Huang et al., 2011a]).

[5] = Systemic toxicity after intraperitoneal injection; type: in vivo, mice; settings: 100 μL
Procedure: The mice were inoculated by intraperitoneal injection with 100 μL of S2 (80 MIC), and saline was used as the control. Signs of animal distress and changes in body weight were closely monitored. After five days, all the mice were euthanized, and the blood biochemistry parameters were determined ([Mishra et al., 2019]).

[6] = mean, intraperitoneal 80 MIC, after five days

In the case of `CC(C)C[C@H](NC(=O)[C@H](CC(C)C)NC(=O)[C@H](Cc1c[nH]c2ccccc12)NC(=O)[C@H](Cc1c[nH]c2ccccc12)NC(=O)[C@H](Cc1c[nH]c2ccccc12)NC(=O)[C@H](CCCNC(=N)N)NC(=O)[C@@H]1CSSC[C@H](N)C(=O)N[C@@H](C)C(=O)N[C@@H](CO)C(=O)N[C@@H](Cc2ccc(O)cc2)C(=O)N[C@@H](Cc2ccccc2)C(=O)N1)C(N)=O` [Peptide S2] (H-CASYFCRWWWLL-NH2; disulfide 1-6; N-terminus assumed), the “MIC E. coli 25922” value (E. coli 25922) is reported as greater than 64 µM, the “MIC E. coli UB1005” value (E. coli UB1005) is reported as greater than 64 µM and the “MIC S. pullorum 7913” value (S. pullorum 7913) is reported as greater than 64 µM. For the same compound, the “MIC S. aureus 25923” value (S. aureus 25923) was 8 µM (≈ 13 µg/mL), the “MIC S. aureus 29213” value (S. aureus 29213 [1]) was 8 µM (≈ 13 µg/mL) and the “MIC MRSA 43300” value (MRSA 43300) was 8 µM (≈ 13 µg/mL). For the same compound, the “MIC L. rhamnosus 1.0385” value (L. rhamnosus 1.0385) was greater than 64 µM, the “MIC L. rhamnosus 1.0911” value (L. rhamnosus 1.0911) was greater than 64 µM and the “MIC L. rhamnosus 1.0936” value (L. rhamnosus 1.0936) was greater than 64 µM. The “MIC L. rhamnosus 7469” value (L. rhamnosus 7469) was greater than 64 µM, the “MIC against S. aureus 29213, FeCl3” value (S. aureus 29213 [2]; 4 μM FeCl3) was 16 µM and the “MIC against S. aureus 29213, NH4Cl” value (S. aureus 29213 [2]; 6 μM NH4Cl) was 8 µM. For the same compound, the “MIC against S. aureus 29213, ZnCl2” value (S. aureus 29213 [2]; 8 μM ZnCl2) was 4 µM, the “MIC against S. aureus 29213, MgCl2” value (S. aureus 29213 [2]; 1 mM MgCl2) was 8 µM and the “MIC against S. aureus 29213, CaCl2” value (S. aureus 29213 [2]; 2 mM CaCl2) was 16 µM. For the same compound, the “MIC against S. aureus 29213, KCl” value (S. aureus 29213 [2]; 4.5 mM KCl) was 8 µM, the “MIC against S. aureus 29213, NaCl” value (S. aureus 29213 [2]; 150 mM NaCl) was 8 µM and the “bacterial reduction in S. aureus” value (S. aureus ATCC 29213; 0.5 × MIC, after 5 s of exposure, PBS, 2–7 × 10^5 CFU/mL) was 2 log10. The “time of peptide exposure for 100% bacterial killing” value (S. aureus ATCC 29213; at 2 × MIC) was 30 s, the “time of peptide exposure for 100% bacterial killing” value (S. aureus ATCC 29213; at MIC) was 60 s and the “change in MIC value, 15th day versus first day” value [3] was “remained almost constant”. For the same compound, the “histomorphological changes of skin tissue (HE)” value (S. aureus 29213 [4]) was “good recovery”, the “apoptotic cells in mouse skin (TUNEL)” value (mouse skin) was “no apparent epidermal apoptosis” and the “blood parameters versus saline treatment group” value ([5]; intraperitoneal, 80 MIC, after five days) was “unaltered”. The “clinical signs of toxicity” value ([5]; intraperitoneal, 80 MIC, monitored five days) was “no clinical signs indicative of toxicity”, the “blood Cl-” value [5, 6] was 111.25 mmol/L and the blood Creatinine [5, 6] was 12.4 µM. The “blood Glucose” value [5, 6] was 10.17 mmol/L, the “blood I.Phos.” value [5, 6] was 2.335 mmol/L and the “blood K+” value [5, 6] was 5.84 mmol/L. The “blood Na+” value [5, 6] was 149 mmol/L and the “blood Urea” value [5, 6] was 9.43 mmol/L.
